Source: patent publication US20220370642A1, “METHODS OF DETECTING NEUROLOGICAL DISORDERS VIA BINDING TO PHOSPHORYLATED TAU PROTEIN” (Amydis, Inc., priority 2019, published 2022)

Test system: hyperphosphorylated 3RTau
Assay: Tau protein retinal staining: colocalization of Compound 5 with 3RTau antibody in retinal sections (confocal fluorescence)
Format: binding, mice
Conditions: for Pearson correlation coefficient (PCC) of colocalization with 3RTau antibody: Image J analysis, -1=complete anti-colocalization, 0=non colocalization, 1=complete colocalization
Experimental: Retinas of different age of three-repeat tau (“3RTau”) mice (3 months, 6 months and 12 months) were mounted on slides. The retina were washed with PBS 2 times for 5 minutes. A solution of 98% formic acid was added—5 minutes for antigen retrieval. The sampled were washed with distilled water—2 times for 5 minutes. The samples were equilibrated in 1×PBS for 15 minutes, then blocked with 10% goat/donkey serum in 1×PBST (depending on antibodies) for 1 hour. The samples were then incubated with three-repeat tau antibody in 10% goat serum in 1×PBST at 4 degree C. overnight, then rinsed with 1×PBST 3 times for 5 minutes each. Samples were incubated with secondary antibody (Alexa Fluor 568 Anti mouse) in 1×PBST for 1 hour, then covered with foil, then rinsed with 1×PBST 3 times for 5 minutes each. Samples were stained with Compound 5 working solution for 30 minutes at room temperature, covered in foil, and washed with 1×PBS 3 times for 5 minutes each. Samples were stained with DAPI (300 nM or 100 ng/mL) in dark for 10 minutes, then tissues were washed 3×10 minutes with PBS. Antifade DAKO mounting medium was added, and coverslip and kept under foil until imaging. Images were obtained using a Leica confocal microscope.
Fluorescent imaging study was conducted on a Leica DMI 4000B microscope (Leica, Germany) equipped with a TCS SPE camera and Leica 10, 20 and 40× objectives. The following lasers were used to visualize fluorescent probes pertaining to DAPI (blue, nuclear stain), Compound 5 (green) and 3RTau (red): 408, 488 and 568 nm. Z-stacked images were taken at 40× at 0.5 μm increments to visualize the entire thickness of the tissue.

N#C/C(=C\c1ccc2cc(N3CCCCC3)ccc2c1)C(=O)NCC(O)CO (stereo not drawn) [Compound 5]
Pearson correlation coefficient (PCC) of colocalization with 3RTau antibody (3RTau mouse retinal section): 0.67
colocalization with 3Rtau immunoreactivity in retina (immunostaining) (3RTau transgenic mice retina, 3, 6 and 12 months): colocalizes
Pearson correlation coefficient (PCC) of colocalization with 3RTau antibody (control mouse retinal section): 0.04
